# Laboratory results reported in patent US20200390899A1, “AMINOBENZAZEPINE COMPOUNDS, IMMUNOCONJUGATES, AND USES THEREOF” (BOLT BIOTHERAPEUTICS, INC., priority 2019, published 2020).
# Read-outs that look alike come from different tables or passages of the source.
# Experiments:
# human TLR8 = molecular target: T1, human TLR8 (Homo sapiens, UniProt Q9NR97); assay: HEK293 NFKB reporter assay, human TLR8; assay type: cell-based; settings: HEK293 reporter cells expressing human TLR8, read-out: HEK293 hTLR8 EC50
# T1 construct: host or cells: HEK293 reporter cells
# T1 sequence (Q9NR97 27-1041): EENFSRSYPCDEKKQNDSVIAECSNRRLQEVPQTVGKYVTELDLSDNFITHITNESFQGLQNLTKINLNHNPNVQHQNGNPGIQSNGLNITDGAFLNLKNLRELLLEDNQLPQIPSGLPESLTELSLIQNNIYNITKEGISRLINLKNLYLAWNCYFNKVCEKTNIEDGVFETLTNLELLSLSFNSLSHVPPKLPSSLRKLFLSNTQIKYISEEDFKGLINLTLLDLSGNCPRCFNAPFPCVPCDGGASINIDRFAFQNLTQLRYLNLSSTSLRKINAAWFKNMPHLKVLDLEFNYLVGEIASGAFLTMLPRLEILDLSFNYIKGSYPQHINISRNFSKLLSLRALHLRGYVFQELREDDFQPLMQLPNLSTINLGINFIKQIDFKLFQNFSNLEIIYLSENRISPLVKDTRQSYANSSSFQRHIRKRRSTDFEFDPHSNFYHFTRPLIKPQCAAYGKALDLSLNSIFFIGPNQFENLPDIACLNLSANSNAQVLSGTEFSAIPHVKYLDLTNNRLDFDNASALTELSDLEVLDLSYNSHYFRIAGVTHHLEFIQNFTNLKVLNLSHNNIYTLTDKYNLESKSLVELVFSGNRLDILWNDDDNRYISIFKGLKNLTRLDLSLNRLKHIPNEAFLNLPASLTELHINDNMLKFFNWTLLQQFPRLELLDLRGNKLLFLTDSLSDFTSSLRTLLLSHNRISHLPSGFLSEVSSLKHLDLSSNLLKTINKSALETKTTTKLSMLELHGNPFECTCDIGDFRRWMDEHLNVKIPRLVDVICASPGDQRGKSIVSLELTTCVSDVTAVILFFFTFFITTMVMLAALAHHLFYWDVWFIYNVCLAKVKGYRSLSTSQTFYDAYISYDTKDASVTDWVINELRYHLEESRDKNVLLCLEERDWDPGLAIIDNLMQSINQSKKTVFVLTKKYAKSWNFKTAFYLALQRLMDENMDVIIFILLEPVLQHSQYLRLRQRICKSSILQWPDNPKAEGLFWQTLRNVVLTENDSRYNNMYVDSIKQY
# Experimental: (§1) Each compound was synthesized and purified by the methods in the Examples provided herein, characterized by mass spectrometry, and shown to have the mass indicated. Activity against HEK293 NFKB reporter cells expressing human TLR7 or human TLR8 was measured according to Example 68.
# (§2) HEK293 reporter cells expressing human TLR7 or human TLR8 were purchased from Invivogen and vendor protocols were followed for cellular propagation and experimentation. Briefly, cells were grown to 80-85% confluence at 5% CO2 in DMEM supplemented with 10% FBS, Zeocin, and Blasticidin. Cells were then seeded in 96-well flat plates at 4×10^4cells/well with substrate containing HEK detection medium and immunostimulatory molecules. Activity was measured using a plate reader at 620-655 nm wavelength.
# human TLR7 = molecular target: T2, human TLR7 (Homo sapiens, UniProt Q9NYK1); assay: HEK293 NFKB reporter assay, human TLR7; assay type: cell-based; settings: HEK293 reporter cells expressing human TLR7, read-out: HEK293 hTLR7 EC50
# T2 construct: host or cells: HEK293 reporter cells
# T2 sequence (Q9NYK1 27-1049): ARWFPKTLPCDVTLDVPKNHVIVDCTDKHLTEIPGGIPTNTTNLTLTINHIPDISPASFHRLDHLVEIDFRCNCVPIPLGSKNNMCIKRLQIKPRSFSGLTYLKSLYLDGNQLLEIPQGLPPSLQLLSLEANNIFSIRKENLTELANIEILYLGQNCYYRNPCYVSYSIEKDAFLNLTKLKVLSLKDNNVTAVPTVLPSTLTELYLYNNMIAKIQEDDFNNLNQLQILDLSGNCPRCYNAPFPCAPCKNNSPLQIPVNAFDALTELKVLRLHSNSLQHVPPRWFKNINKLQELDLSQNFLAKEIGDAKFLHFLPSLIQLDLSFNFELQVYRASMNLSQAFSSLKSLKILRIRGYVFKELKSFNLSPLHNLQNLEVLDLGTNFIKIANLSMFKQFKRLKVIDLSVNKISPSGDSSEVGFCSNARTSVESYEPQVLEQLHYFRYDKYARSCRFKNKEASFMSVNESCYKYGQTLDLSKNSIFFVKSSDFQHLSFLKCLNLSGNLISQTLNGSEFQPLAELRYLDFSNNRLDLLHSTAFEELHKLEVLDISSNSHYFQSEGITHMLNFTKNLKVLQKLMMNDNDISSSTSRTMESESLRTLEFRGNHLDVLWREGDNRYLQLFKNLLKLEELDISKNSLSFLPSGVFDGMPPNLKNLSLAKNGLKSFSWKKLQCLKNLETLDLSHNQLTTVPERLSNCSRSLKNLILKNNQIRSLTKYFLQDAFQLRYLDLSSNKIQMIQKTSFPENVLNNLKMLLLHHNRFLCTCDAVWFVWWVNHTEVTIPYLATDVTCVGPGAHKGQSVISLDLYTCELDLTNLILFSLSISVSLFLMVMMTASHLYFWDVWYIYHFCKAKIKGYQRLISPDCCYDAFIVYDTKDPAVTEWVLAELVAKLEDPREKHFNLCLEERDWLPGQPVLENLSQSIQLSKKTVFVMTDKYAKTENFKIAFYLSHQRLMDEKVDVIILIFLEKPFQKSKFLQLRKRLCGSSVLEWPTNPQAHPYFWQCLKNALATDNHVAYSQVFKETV
# Experimental: as §1, §2
EC50 (human TLR8; Table 1b),EC50 (human TLR7; Table 1b),EC50 (human TLR8; Table 1c),EC50 (human TLR7; Table 1c),Structure (SMILES),other results
–,–,6.67 µM,3.21 µM,CCCN(CCC)C(=O)C1=Cc2ccc(CCCCCNC(=O)OC(C)(C)C)cc2N=C(N)C1 [Bz-69],–
–,–,0.341 µM,≥ 9 µM,CCCN(CCC(F)(F)F)C(=O)C1=Cc2ccc(-c3cccc(S(=O)(=O)N4CC(CO)C4)c3)cc2N=C(N)C1 [Bz-47],–
–,–,1.92 µM,1.43 µM,CCCN(CCCNC(=O)c1ccc(OCC)cc1)C(=O)C1=Cc2ccc(-c3cccc(S(=O)(=O)N4CC(CO)C4)c3)cc2N=C(N)C1 [Bz-51],–
–,–,≥ 9 µM,≥ 9 µM,CCCN(Cc1ccc(CN2CCNCC2)cc1)C(=O)C1=Cc2ccc(-c3cccc(S(=O)(=O)N4CC(CO)C4)c3)cc2N=C(N)C1 [Bz-49],–
–,–,3.07 µM,4.6 µM,CCCN(CCC)C(=O)C1=Cc2ccc(C#CCCCN)cc2N=C(N)C1 [Bz-68],–
–,–,0.12 µM,4.48 µM,CCCN(OCC(F)(F)F)C(=O)C1=Cc2ccc(-c3cccc(S(=O)(=O)N4CC(CO)C4)c3)cc2N=C(N)C1 [Bz-73],–
–,–,0.026 µM,4.61 µM,CCON(CCC(F)(F)F)C(=O)C1=Cc2ccc(-c3cccc(S(=O)(=O)N4CC(CO)C4)c3)cc2N=C(N)C1 [Bz-66],–
–,–,2.05 µM,3.93 µM,CCCN(CCC)C(=O)C1=Cc2ccc(C#CCCCNC(=O)OC(C)(C)C)cc2N=C(N)C1 [Bz-67],–

# Second part, the molecule before the results:
Structure (SMILES),EC50 (human TLR8; Table 1b),EC50 (human TLR7; Table 1b),EC50 (human TLR8; Table 1c),EC50 (human TLR7; Table 1c),other results
"CCCN(CCCCCN)C(=O)C1=Cc2ccc(-c3cccc(S(=O)(=O)N4CC(CO)C4)c3)cc2N=C(N)C1 [Bz-20, 2-amino-N-(5-aminopentyl)-8-(3-((3-(hydroxymethyl)azetidin-1-yl)sulfonyl)phenyl)-N-propyl-3H-benzo[b]azepine-4-carboxamide]",> 9 µM,> 9 µM,–,–,–
"CCCN(CC#CCNC(=O)OC(C)(C)C)C(=O)C1=Cc2ccc(-c3cccc(S(=O)(=O)N4CC(CN(C)C)C4)c3)cc2N=C(N)C1 [Bz-28, tert-butyl N-[4-[[2-amino-8-[3-[3-[(dimethylamino)methyl]azetidin-1-yl]sulfonylphenyl]-3H-1-benzazepine-4-carbonyl]-propyl-amino]but-2-ynyl]carbamate]",0.0428 µM,4.25 µM,–,–,–
"CCCN(CCC(F)(F)F)C(=O)C1=Cc2ccc(-c3cccc(S(=O)(=O)N4CC(CO)C4)c3)cc2N=C(N)C1 [Bz-31, 2-amino-8-[3-[3-(hydroxymethyl)azetidin-1-yl]sulfonylphenyl]-N-propyl-N-(3,3,3-trifluoropropyl)-3H-1-benzazepine-4-carboxamide]",0.341 µM,> 9 µM,–,–,–
"CCCN(CCCOCCCN)C(=O)C1=Cc2ccc(-c3cccc(S(=O)(=O)N4CC(CO)C4)c3)cc2N=C(N)C1 [Bz-18, 2-amino-N-(3-(3-aminopropoxy)propyl)-8-(3-((3-(hydroxymethyl)azetidin-1-yl)sulfonyl)phenyl)-N-propyl-3H-benzo[b]azepine-4-carboxamide]",3.4 µM,1.99 µM,–,–,–
"CCCN(CCCCCNC(=O)OC(C)(C)C)C(=O)C1=Cc2ccc(-c3cccc(S(=O)(=O)N4CC(CO)C4)c3)cc2N=C(N)C1 [Bz-9, tert-butyl N-[5-[[2-amino-8-[3-[3-(hydroxymethyl)azetidin-1-yl]sulfonylphenyl]-3H-1-benzazepine-4-carbonyl]-propyl-amino]pentyl]carbamate]",–,–,–,–,EC50 (human TLR8; Table 1a): 0.629 µM; EC50 (human TLR7; Table 1a): 8.65 µM
"CCCN(CCC)C(=O)C1=Cc2ccc(-c3cccc(S(=O)(=O)N4CC(CNC(=O)OC(C)(C)C)C4)c3)cc2N=C(N)C1 [Bz-6, tert-butyl ((1-((3-(2-amino-4-(dipropylcarbamoyl)-3H-benzo[b]azepin-8-yl)phenyl)sulfonyl)azetidin-3-yl)methyl)carbamate]",–,–,–,–,EC50 (human TLR8; Table 1a): 0.265 µM; EC50 (human TLR7; Table 1a): > 9 µM
"CCCN(CCCN)C(=O)C1=Cc2ccc(-c3cccc(S(=O)(=O)N4CC(CO)C4)c3)cc2N=C(N)C1 [Bz-17, 2-amino-N-(3-aminopropyl)-8-[3-[3-(hydroxymethyl)azetidin-1-yl]sulfonylphenyl]-N-propyl-3H-1-benzazepine-4-carboxamide]",> 9 µM,> 9 µM,–,–,–
"CCCN(CCCNC(=O)CC(C)(C)C)C(=O)C1=Cc2ccc(-c3cccc(S(=O)(=O)N4CC(CO)C4)c3)cc2N=C(N)C1 [Bz-19, 2-amino-N-(3-(3,3-dimethylbutanamido)propyl)-8-(3-((3-(hydroxymethyl)azetidin-1-yl)sulfonyl)phenyl)-N-propyl-3H-benzo[b]azepine-4-carboxamide]",3.17 µM,1.07 µM,–,–,–
"CCCN(CCCNC(=O)c1ccc(OCC)cc1)C(=O)C1=Cc2ccc(C(=O)Nc3ccccc3)cc2N=C(N)C1 [Bz-34, 2-amino-N^4-(3-(4-ethoxybenzamido)propyl)-N^8-phenyl-N^4-propyl-3H-benzo[b]azepine-4,8-dicarboxamide]",1.04 µM,> 9 µM,–,–,–
CCCN(CCC)C(=O)C1=Cc2ccc(-c3ccc(CN)c(S(=O)(=O)N4CC(CO)C4)c3)cc2N=C(N)C1 [Bz-2],–,–,–,–,EC50 (human TLR8; Table 1a): 9.76 µM; EC50 (human TLR7; Table 1a): > 9 µM
"CCCN(Cc1ccc(CN)cc1)C(=O)C1=Cc2ccc(-c3cccc(S(=O)(=O)N4CC(CO)C4)c3)cc2N=C(N)C1 [Bz-27, 2-Amino-N-(4-(aminomethyl)benzyl)-8-(3-((3-(hydroxymethyl)azetidin-1-yl)sulfonyl)phenyl)-N-propyl-3H-benzo[b]azepine-4-carboxamide]",0.138 µM,> 9 µM,–,–,–
"CCCN(Cc1ccc(CN2CCNCC2)cc1)C(=O)C1=Cc2ccc(-c3cccc(S(=O)(=O)N4CC(CO)C4)c3)cc2N=C(N)C1 [Bz-32, 2-amino-8-[3-[3-(hydroxymethyl)azetidin-1-yl]sulfonylphenyl]-N-[[4-(piperazin-1-ylmethyl)phenyl]methyl]-N-propyl-3H-1-benzazepine-4-carboxamide]",> 9 µM,> 9 µM,–,–,–
CCCN(CCCNC(=O)OC(C)(C)C)C(=O)C1=Cc2ccc(-c3ccc(C(=O)N4CCCC4)cc3)cc2N=C(N)C1 [Bz-4],–,–,–,–,EC50 (human TLR8; Table 1a): 1.68 µM; EC50 (human TLR7; Table 1a): 1.48 µM
"CCCN(CCNC(=O)OC(C)(C)C)C(=O)C1=Cc2ccc(-c3cccc(S(=O)(=O)N4CC(CO)C4)c3)cc2N=C(N)C1 [Bz-10, tert-butyl (2-(2-amino-8-(3-((3-(hydroxymethyl)azetidin-1-yl)sulfonyl)phenyl)-N-propyl-3H-benzo[b]azepine-4-carboxamido)ethyl)carbamate]",–,–,–,–,EC50 (human TLR8; Table 1a): > 9 µM; EC50 (human TLR7; Table 1a): > 9 µM
